Results from patent US8835647B2, “2-((R)-2-methylpyrrolidin-2-yl)-1H-benzimidazole-4-carboxamide crystalline form 1” (AbbVie Inc., priority 2007, dated 2014).

Tests used:
[1] = at 25° C.
[2] = system: tumor; settings: tumor bearing animals; cited from earlier work

Row | SMILES | thermodynamic stability of crystalline form [1] | tumor growth [2]
1 | C[C@]1(c2nc3c(C(N)=O)cccc3[nH]2)CCCN1 [ABT-888 Crystalline Form 1, 2-((R)-2-Methylpyrrolidin-2-yl)-1H-benzimidazole-4-carboxamide Crystalline Form 1] | most thermodynamically stable crystalline form of ABT-888 | 
2 | C[C@]1(c2nc3c(C(N)=O)cccc3[nH]2)CCCN1 [ABT-888, 2-((R)-2-methylpyrrolidin-2-yl)-1H-benzimidazole-4-carboxamide] |  | limit tumor growth
